Data from the supplement of paper PMC13380429.
± gives the standard deviation of the averaged measurements.

Legend:
Conditions in all cases: 72 h
Caco-2 [1] = assay: cell viability relative to DMSO; higher = less toxic
Calu-3 [2] = assay: as above
HepG2 [3] = assay: as above
U2OS [4] = assay: as above
Vero E6 [5] = assay: as above
Caco-2 [6] = assay: relative viability EC50 (midpoint between 100% and the lowest measured viability); higher = less toxic
Calu-3 [7] = assay: as above
HepG2 [8] = assay: as above
U2OS [9] = assay: as above
Vero E6 [10] = assay: as above
Caco-2 [11] = assay: drug sensitivity score (DSS) for viability; higher = more toxic; extreme values may be limits of the assay
Calu-3 [12] = assay: as above
HepG2 [13] = assay: as above
U2OS [14] = assay: as above
Vero E6 [15] = assay: as above

SMILES	cell viability (Caco-2 [1]; 1 nM) [%]	cell viability (Caco-2 [1]; 10 nM) [%]	cell viability (Caco-2 [1]; 100 nM) [%]	cell viability (Caco-2 [1]; 1000 nM) [%]	cell viability (Caco-2 [1]; 10000 nM) [%]	cell viability (Calu-3 [2]; 1 nM) [%]	cell viability (Calu-3 [2]; 10 nM) [%]	cell viability (Calu-3 [2]; 100 nM) [%]	cell viability (Calu-3 [2]; 1000 nM) [%]	cell viability (Calu-3 [2]; 10000 nM) [%]	cell viability (HepG2 [3]; 1 nM) [%]	cell viability (HepG2 [3]; 10 nM) [%]	cell viability (HepG2 [3]; 100 nM) [%]	cell viability (HepG2 [3]; 1000 nM) [%]	cell viability (HepG2 [3]; 10000 nM) [%]	cell viability (U2OS [4]; 1 nM) [%]	cell viability (U2OS [4]; 10 nM) [%]	cell viability (U2OS [4]; 100 nM) [%]	cell viability (U2OS [4]; 1000 nM) [%]	cell viability (U2OS [4]; 10000 nM) [%]	cell viability (Vero E6 [5]; 1 nM) [%]	cell viability (Vero E6 [5]; 10 nM) [%]	cell viability (Vero E6 [5]; 100 nM) [%]	cell viability (Vero E6 [5]; 1000 nM) [%]	cell viability (Vero E6 [5]; 10000 nM) [%]	relative viability EC50 (Caco-2 [6]) [µM]	relative viability EC50 (Calu-3 [7]) [µM]	relative viability EC50 (HepG2 [8]) [µM]	relative viability EC50 (U2OS [9]) [µM]	relative viability EC50 (Vero E6 [10]) [µM]	drug sensitivity score (Caco-2 [11])	drug sensitivity score (Calu-3 [12])	drug sensitivity score (HepG2 [13])	drug sensitivity score (U2OS [14])	drug sensitivity score (Vero E6 [15])
Nc1nc(=O)c2nc(CNc3ccc(C(=O)N[C@@H](CCC(=O)O)C(=O)O)cc3)cnc2[nH]1 [folic-acid]	89.2	103	101	95.3	90.7	93.5	102	88.1	106	97.8	106	101	99.8	97.2	99.4	97.7	101	97	99.4	96.4	99.9	102	97	101	92.8	> 10	> 10	> 10	> 10	> 10	0	0	0	0	0
O=C(COP(=O)(O)O)[C@@H](O)[C@H](O)[C@H](O)COP(=O)(O)O [fosfructose]	107	118	91.9	94.7	93.5	101	101	99.9	98.8	97.2	108	83	73.1	99.1	95.4	97.9	106	106	105	99.3	97.6	98.1	102	102	94.7	> 10	> 10	> 10	> 10	> 10	0	0	0	0	0
Cc1ccc(C)c(OCCCC(C)(C)C(=O)O)c1 [gemfibrozil]	102	107	106	93.8	101	104	104	109	93.1	105	98.2	99.9	102	106	104	104	101	104	99.1	102	98.4	101	96.5	100	95.9	> 10	> 10	> 10	> 10	> 10	0	0	0	0	0
O=C(O)Cc1cccnc1C(=O)O [homoquinolinic-acid]	99.5	104	101	96.3	105	92.7	89.2	97.4	95.6	111	104	93.8	95.3	94	93.9	97.4	100	100	99.6	99.7	105	106	102	103	94	> 10	> 10	> 10	> 10	> 10	0	0	0	0	0
C[C@]12CCC(=O)C=C1CC[C@@H]1[C@@H]2[C@@H](O)C[C@@]2(C)[C@H]1CC[C@]2(O)C(=O)COC(=O)CCC(=O)O [hydrocortisone-hemisuccinate]	104	98.7	101	106	111	93.6	100	101	101	95.9	92.9	113	108	96.1	92.1	103	101	104	100	99.6	96.3	96.8	98.3	93.5	102	> 10	> 10	> 10	> 10	> 10	0	0	0	0	0
NS(=O)(=O)c1cc2c(cc1C(F)(F)F)NCNS2(=O)=O [hydroflumethiazide]	99.5	99.1	89.7	98.8	92.2	97.1	101	96.7	103	105	104	103	114	99.3	96.8	102	101	95.3	101	98.2	105	92.2	98.5	97.2	107	> 10	> 10	> 10	> 10	> 10	0	0	0	0	0
CC(=O)[C@]1(O)Cc2c(O)c3c(c(O)c2[C@@H](O[C@H]2C[C@H](N)[C@H](O)[C@H](C)O2)C1)C(=O)c1ccccc1C3=O [idarubicin]	103	96.1	62.1	10.8	17.4	104	90.1	48.6	27.7	9.7	94.8	50.3	29.7	0	0.1	100	86.3	60.7	1	0	106	94	58.2	6.1	2.9	0.117	0.0921	0.016	0.128	0.12	20.7	21	32.2	22.2	22
COC1=C(OC)C(=O)C(CCCCCCCCCCO)=C(C)C1=O [idebenone]	96.4	101	103	98.4	88.6	100	104	90.3	98	95.5	96.1	95.6	99.4	95.9	97.7	98.6	105	94.9	97.7	93.8	102	100	96.9	97.8	97.7	> 10	> 10	> 10	> 10	> 10	0.1	0	0	0	0
CC(=O)N(CC(O)CO)c1c(I)c(C(=O)NCC(O)CO)c(I)c(C(=O)NCC(O)CO)c1I (stereo not given) [iohexol]	95.9 ± 4.7	101 ± 3	101 ± 2.3	106 ± 6.4	96.3 ± 6	104 ± 4.5	95.5 ± 2.8	95.8 ± 1.3	104 ± 15	103.7 ± 0.99	96 ± 9.3	103 ± 4.3	99 ± 5.9	102 ± 11	91.7 ± 3	98 ± 4.5	99.2 ± 1.8	99.4 ± 2	99.9 ± 1.1	104.5 ± 0.14	96.2 ± 3.1	101 ± 2.2	98.7 ± 7.5	99.7 ± 2.1	106 ± 6.8	> 10	> 10	> 10	> 10	> 10	0	0	0	0	0
CC(C)CC(N)=O [isovaleramide]	106	92.6	99.1	99.4	101	113	103	97.1	105	95.4	103	99.4	101	95.5	101	102	92.8	99.3	89.1	96.7	102	101	102	97.9	93.1	> 10	> 10	> 10	> 10	> 10	0	0	0	0	0
CS(=O)(=O)c1cc(F)cc2c3c(n(Cc4ccc(Cl)cc4)c12)[C@@H](CC(=O)O)CC3 [laropiprant]	95.4	102	91	95.4	88.5	101	95.4	90.3	110	94.6	99	94.2	100	98.6	101	100	101	98.3	106	97.5	102	99.6	106	98.2	91.9	> 10	> 10	> 10	> 10	> 10	0	0	0	0	0
